In article PMC11345841, “Exploring 2-Sulfonylpyrimidine Warheads as Acrylamide Surrogates for Targeted Covalent Inhibition: A BTK Story” (Journal of Medicinal Chemistry, 2024):
Like-named read-outs stand apart in the source and are kept apart here.

Experiments:
[1] = target: T1, JAK2(JH1domain-catalytic) (Homo sapiens, UniProt O60674); assay: KINOMEscan ScanTK; type: binding
T1 construct: JAK2(JH1domain-catalytic); purchased Eurofins DiscoverX KINOMEscan (scanTK)

[2] = target: T2, EGFR(L858R,T790M) (Homo sapiens, UniProt P00533, L858R/T790M); assay: KINOMEscan ScanTK; type: binding
T2 construct: purchased Eurofins DiscoverX KINOMEscan (scanTK)

[3] = target: T3, LYN (Homo sapiens, UniProt P07948); assay: KINOMEscan ScanTK; type: binding
T3 construct: purchased Eurofins DiscoverX KINOMEscan (scanTK)

[4] = test system: TMD8 cells; assay: RNA-seq gene expression; settings: TMD8, 1 μM, 8 h; for number of genes reduced vs DMSO: FDR < 0.01, log2FC < -0.5; for number of genes increased vs DMSO: FDR < 0.01, log2FC > 0.5
[5] = target: T4, ZAP70 (Homo sapiens, UniProt P43403); assay: KINOMEscan ScanTK; type: binding
T4 construct: purchased Eurofins DiscoverX KINOMEscan (scanTK)
T4 sequence (P43403 1-619): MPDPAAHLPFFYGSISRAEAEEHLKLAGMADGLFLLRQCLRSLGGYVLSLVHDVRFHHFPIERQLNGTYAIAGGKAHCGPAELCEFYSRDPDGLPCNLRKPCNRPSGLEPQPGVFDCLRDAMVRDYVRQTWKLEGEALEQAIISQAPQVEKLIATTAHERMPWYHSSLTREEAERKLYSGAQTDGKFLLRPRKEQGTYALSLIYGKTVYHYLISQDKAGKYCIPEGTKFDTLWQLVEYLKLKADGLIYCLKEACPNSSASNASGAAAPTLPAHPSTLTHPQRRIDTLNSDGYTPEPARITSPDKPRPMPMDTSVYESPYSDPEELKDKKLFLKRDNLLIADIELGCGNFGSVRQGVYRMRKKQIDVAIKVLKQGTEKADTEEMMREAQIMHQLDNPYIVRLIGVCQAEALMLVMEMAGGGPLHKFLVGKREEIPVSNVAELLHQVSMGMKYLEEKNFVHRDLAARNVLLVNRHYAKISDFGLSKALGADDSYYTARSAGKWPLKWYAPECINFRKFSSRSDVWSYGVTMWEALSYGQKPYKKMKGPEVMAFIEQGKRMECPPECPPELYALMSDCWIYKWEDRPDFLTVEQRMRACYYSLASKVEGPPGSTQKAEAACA

[6] = target: T5, TNK1 (Homo sapiens, UniProt Q13470); assay: KINOMEscan ScanTK; type: binding
T5 construct: purchased Eurofins DiscoverX KINOMEscan (scanTK)
T5 sequence (Q13470 1-666): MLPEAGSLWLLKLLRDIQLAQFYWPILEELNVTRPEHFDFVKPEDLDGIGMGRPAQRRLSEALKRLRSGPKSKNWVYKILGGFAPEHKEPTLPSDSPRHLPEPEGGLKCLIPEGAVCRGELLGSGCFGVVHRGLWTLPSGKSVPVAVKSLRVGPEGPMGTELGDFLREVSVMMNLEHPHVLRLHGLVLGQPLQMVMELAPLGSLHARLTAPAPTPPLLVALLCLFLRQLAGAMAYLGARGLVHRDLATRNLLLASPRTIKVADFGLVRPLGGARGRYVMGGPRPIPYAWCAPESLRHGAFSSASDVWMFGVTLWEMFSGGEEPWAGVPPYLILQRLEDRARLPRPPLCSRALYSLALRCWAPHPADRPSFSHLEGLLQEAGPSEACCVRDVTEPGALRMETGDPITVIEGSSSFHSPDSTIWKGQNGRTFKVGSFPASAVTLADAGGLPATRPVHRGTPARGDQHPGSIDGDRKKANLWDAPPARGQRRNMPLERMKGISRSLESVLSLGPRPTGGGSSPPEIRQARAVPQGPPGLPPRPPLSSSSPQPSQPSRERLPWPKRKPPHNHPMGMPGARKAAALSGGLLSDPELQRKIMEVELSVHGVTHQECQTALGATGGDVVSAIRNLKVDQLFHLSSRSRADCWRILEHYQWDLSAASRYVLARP

[7] = target: T6, KIT(D816H) (Homo sapiens, UniProt P10721, D816H); assay: KINOMEscan ScanTK; type: binding
T6 construct: purchased Eurofins DiscoverX KINOMEscan (scanTK)

[8] = test system: FLT3(ITD); assay: KINOMEscan ScanTK; type: binding; settings: for % difference (compound - Ib %Control) / %Control: @1000nM
[9] = test system: TMD8 cells; assay: Annexin V/propidium iodide staining (apoptosis, viability); type: cell-based, human; settings: 72 h
Method: We tested the effects of compounds in TMD8 cells, derived from an activated B-cell DLBCL. These cells have constitutive signaling via the BCR and additionally carry MYD88^L265P and CD79B mutations which give rise to My-T-BCR complex. […] Apoptosis was quantified after exposure of cells to compounds for 72 h using annexin V/PI staining and flow cytometry (Figure 3E, Figure S4).
Cells were washed in phosphate-buffered saline and resuspended in 300 μL of annexin V staining buffer (10 mM HEPES HCl (pH 7.4), 140 mM NaCl, 2.5 mM CaCl2) supplemented with 2.5 μg/mL fluorescein isothiocyanate-labeled annexin V (kind gift from Dr Patrick Duriez, Protein Core Facility, University of Southampton) and 12.5 μM propidium iodide (Invitrogen). Cells were analyzed by flow cytometry (Canto II system, BD Biosciences) and the percentage of viable cells was determined by calculating the proportion of Annexin V-/PI-cells as a percentage of all cells (results for untreated cells at 72 h set to 100%).

T1 sequence (O60674 849-1132 limits assumed): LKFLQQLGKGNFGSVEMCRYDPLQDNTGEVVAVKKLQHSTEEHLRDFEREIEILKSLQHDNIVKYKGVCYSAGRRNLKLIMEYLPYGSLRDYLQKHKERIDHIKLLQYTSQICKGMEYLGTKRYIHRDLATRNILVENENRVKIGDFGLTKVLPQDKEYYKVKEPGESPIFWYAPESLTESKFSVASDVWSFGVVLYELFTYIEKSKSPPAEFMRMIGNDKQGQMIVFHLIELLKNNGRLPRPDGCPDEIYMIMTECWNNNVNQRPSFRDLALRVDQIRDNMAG
T2 sequence (P00533 25-1210 T790M/L858R): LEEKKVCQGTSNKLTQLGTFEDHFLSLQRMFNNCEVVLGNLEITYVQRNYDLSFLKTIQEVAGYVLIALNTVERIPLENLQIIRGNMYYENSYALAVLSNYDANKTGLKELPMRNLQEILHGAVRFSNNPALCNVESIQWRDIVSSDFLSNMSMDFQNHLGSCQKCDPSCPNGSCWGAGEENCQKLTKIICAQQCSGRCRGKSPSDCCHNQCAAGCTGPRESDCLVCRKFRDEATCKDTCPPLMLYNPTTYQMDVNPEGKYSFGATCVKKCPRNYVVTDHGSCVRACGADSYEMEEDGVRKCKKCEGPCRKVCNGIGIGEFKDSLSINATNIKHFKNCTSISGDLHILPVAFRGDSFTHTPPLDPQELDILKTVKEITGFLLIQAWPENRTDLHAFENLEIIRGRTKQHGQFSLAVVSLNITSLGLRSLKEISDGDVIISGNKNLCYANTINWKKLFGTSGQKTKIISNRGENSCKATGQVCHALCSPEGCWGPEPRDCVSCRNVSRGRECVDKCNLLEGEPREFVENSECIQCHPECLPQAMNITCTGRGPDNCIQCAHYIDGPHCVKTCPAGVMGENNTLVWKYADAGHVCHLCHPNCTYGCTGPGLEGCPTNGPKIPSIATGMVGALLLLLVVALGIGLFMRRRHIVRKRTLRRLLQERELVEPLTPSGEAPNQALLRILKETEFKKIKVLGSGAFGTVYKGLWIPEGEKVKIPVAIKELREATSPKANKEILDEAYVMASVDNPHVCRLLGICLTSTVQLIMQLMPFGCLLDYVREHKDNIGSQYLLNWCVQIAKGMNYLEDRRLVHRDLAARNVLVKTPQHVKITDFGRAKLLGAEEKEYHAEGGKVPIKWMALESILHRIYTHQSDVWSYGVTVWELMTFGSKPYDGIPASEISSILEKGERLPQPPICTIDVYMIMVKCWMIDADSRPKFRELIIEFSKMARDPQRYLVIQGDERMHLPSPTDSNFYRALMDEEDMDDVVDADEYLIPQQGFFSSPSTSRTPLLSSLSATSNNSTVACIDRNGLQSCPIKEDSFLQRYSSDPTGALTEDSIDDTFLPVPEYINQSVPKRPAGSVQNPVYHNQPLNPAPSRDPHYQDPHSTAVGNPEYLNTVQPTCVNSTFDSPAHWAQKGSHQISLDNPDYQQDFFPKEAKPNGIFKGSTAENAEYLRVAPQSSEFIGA
T6 sequence (P10721 26-976 D816H): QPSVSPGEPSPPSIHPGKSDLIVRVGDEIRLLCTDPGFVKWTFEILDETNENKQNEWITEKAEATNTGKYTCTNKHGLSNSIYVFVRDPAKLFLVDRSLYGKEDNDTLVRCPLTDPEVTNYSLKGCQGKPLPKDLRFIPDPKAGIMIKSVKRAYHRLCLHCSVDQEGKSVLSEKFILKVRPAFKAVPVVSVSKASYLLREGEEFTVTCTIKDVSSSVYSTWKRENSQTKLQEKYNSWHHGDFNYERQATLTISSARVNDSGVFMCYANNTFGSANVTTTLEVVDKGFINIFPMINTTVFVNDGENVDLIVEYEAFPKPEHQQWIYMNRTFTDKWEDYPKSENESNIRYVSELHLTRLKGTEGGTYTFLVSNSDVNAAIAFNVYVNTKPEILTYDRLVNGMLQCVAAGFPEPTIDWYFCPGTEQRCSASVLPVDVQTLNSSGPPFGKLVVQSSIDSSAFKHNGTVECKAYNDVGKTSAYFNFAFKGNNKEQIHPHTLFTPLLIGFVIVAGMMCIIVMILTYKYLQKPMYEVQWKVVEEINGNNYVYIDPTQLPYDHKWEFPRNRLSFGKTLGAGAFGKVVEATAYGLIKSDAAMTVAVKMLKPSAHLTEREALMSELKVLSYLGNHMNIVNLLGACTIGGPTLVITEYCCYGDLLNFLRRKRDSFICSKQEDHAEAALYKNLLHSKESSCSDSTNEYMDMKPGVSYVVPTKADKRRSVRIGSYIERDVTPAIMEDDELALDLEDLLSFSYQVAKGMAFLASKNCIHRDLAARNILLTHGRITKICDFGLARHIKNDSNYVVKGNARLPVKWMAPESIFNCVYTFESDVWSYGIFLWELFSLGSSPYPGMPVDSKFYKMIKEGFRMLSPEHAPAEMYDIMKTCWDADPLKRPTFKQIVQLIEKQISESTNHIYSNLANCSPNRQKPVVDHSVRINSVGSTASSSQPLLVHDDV
T3 sequence (P07948 whole entry): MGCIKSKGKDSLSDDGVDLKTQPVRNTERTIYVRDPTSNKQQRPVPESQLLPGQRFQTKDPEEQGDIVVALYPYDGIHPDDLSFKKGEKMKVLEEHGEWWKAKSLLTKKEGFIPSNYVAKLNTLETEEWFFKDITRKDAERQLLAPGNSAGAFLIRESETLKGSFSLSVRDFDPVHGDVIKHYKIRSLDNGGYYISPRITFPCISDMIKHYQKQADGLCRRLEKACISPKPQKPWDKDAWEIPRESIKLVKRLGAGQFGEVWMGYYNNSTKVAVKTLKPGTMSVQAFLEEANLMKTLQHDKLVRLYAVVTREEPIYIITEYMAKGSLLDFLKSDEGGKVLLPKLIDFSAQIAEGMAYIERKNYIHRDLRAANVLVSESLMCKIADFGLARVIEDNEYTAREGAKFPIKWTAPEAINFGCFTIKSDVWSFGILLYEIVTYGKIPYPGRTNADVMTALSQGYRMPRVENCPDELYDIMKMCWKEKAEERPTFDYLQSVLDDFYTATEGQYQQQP

| SMILES | difference in %Control vs compound Ib at 1 µM ([1]; @1000nM) [%] | remaining binding at 1 µM ([1]; @1000nM, read-out: %Control) [%] | remaining binding at 1 µM ([1]; read-out: %Control @1000nM) [%] | difference in % of control versus compound Ib at 1 µM ([2]; @1000nM) [%] | remaining binding at 1 µM ([2]; @1000nM, read-out: %Control) [%] | remaining binding at 1 µM ([2]; read-out: %Control @1000nM) [%] | remaining binding at 1 µM ([3]; @1000nM, read-out: %Control) [%] | remaining binding at 1 µM ([3]; read-out: %Control @1000nM) [%] | number of genes unchanged vs DMSO [4] [genes] | number of genes reduced vs DMSO [4] [genes] | number of genes increased vs DMSO [4] [genes] | remaining binding at 1 µM ([5]; @1000nM, read-out: %Control) [%] | remaining binding at 1 µM ([5]; read-out: %Control @1000nM) [%] | remaining binding at 1 µM ([6]; @1000nM, read-out: %Control) [%] | remaining binding at 1 µM ([6]; read-out: %Control @1000nM) [%] | remaining binding at 1 µM ([7]; @1000nM, read-out: %Control) [%] | remaining binding at 1 µM ([7]; read-out: %Control @1000nM) [%] | %Control @1000nM [8] [%] | % difference (compound - Ib %Control) [8] [%] | %Control [8] [%] | also measured |
| --- | --- | --- | --- | --- | --- | --- | --- | --- | --- | --- | --- | --- | --- | --- | --- | --- | --- | --- | --- | --- | --- |
| Cc1cnc(S(C)(=O)=O)nc1N1CCCC(n2nc(-c3ccc(Oc4ccccc4)cc3)c3c(N)ncnc32)C1 (centres unmarked) [Compound 8a, 1-(1-(5-Methyl-2-(methylsulfonyl)pyrimidin-4-yl)piperidin-3-yl)-3-(4-phenoxyphenyl)-1H-pyrazolo[3,4-d]pyrimidin-4-amine] | -13 | 87 | 87 | 81 | 91 | 91 | 21 | 21 | 14761 | 189 | 97 | 92 | 92 | 91 | 91 | 87 | 87 | 91 | 19 | 91 | fold lower apoptotic potency than Ibrutinib [9]: ~10 fold; induction of apoptosis [9]: induced apoptosis |
| CCOC(=O)c1cnc(S(C)(=O)=O)nc1N1CCC[C@@H](n2nc(-c3ccc(Oc4ccccc4)cc3)c3c(N)ncnc32)C1 [Compound 8c, Ethyl (R)-4-(3-(4-Amino-3-(4-phenoxyphenyl)-1H-pyrazolo[3,4-d]pyrimidin-1-yl)piperidin-1-yl)-2-(methylsulfonyl)pyrimidine-5-carboxylate] | -17 | 83 | 83 | 77 | 87 | 87 | 72 | 72 | 15047 | 0 | 0 | 100 | 100 | 81 | 81 | 55 | 55 | 100 | 28 | 100 | induction of apoptosis [9]: essentially inactive |
| COC(=O)c1cnc(S(C)(=O)=O)nc1N1CCCC(n2nc(-c3ccc(Oc4ccccc4)cc3)c3c(N)ncnc32)C1 (centres unmarked) [Compound 8b, Methyl 4-(3-(4-Amino-3-(4-phenoxyphenyl)-1H-pyrazolo[3,4-d]pyrimidin-1-yl)piperidin-1-yl)-2-(methylsulfonyl)pyrimidine-5-carboxylate] | -18 | 82 | 82 | 69 | 79 | 79 | 49 | 49 | 15031 | 15 | 1 | 94 | 94 | 88 | 88 | 98 | 98 | 100 | 28 | 100 | induction of apoptosis [9]: induced apoptosis |
| C=CC(=O)N1CCC[C@@H](n2nc(-c3ccc(Oc4ccccc4)cc3)c3c(N)ncnc32)C1 [Compound 1g, Ibrutinib, reference compound] |  | 100 | 100 |  |  |  | 16 | 16 | 14846 | 125 | 76 |  |  | 93 | 93 | 100 | 100 | 72 |  | 72 |  |
